# Experimental data taken from ChEMBL document CHEMBL1148375, “Discovery of a bulky 2-tert-butyl group containing primaquine analogue that exhibits potent blood-schizontocidal antimalarial activities and complete elimination of methemoglobin toxicity” (J Med Chem, 2004).
# Activity calls are given as the source filed them. The rule behind the calls is not given here.
# Columns and labels:
# Assay type in all cases: functional, organism-based
# [1] = tested on: Mus musculus; experiment: Compound was evaluated for the blood-schizonticidal antimalarial activity against Plasmodium yoelii nigeriensis (multidrug-resistant strain) in mice (Mus musculus) at 100 mg/kg/day x 4 (oral); indicates that the treated animals show positive parasitaemia either on D+4 orD+7 and usually die by D+14 (survival=0/6)
# [2] = tested on: Mus musculus; experiment: Compound was evaluated for the blood-schizonticidal antimalarial activity against Plasmodium berghei (sensitive strain) in mice (Mus musculus) at 100 mg/kg/day x 4 (oral); indicates that the treated animals show positive parasitaemia either on D+4 or D+7 and usually dieby D+14 (survival=0/6)
# [3] = tested on: Plasmodium falciparum; experiment: Inhibitory concentration against chloroquine-sensitive Plasmodium falciparum
# [4] = tested on: Mus musculus; experiment: Compound was evaluated for the blood-schizonticidal antimalarial activity against Plasmodium yoelii nigeriensis (multidrug-resistant strain) in mice (Mus musculus) at 100 mg/kg/day x 4 (oral); indicates complete elimination of malaria parasites from the body, and animalssurvive up to day D
# [5] = tested on: Mus musculus; experiment: Compound was evaluated for the blood-schizonticidal antimalarial activity against Plasmodium berghei (sensitive strain) in mice (Mus musculus) at 10 mg/kg/day x 4 (oral); indicates that all of the treated animals show negative parasitaemia up to D+7 (survival=4/6)
# [6] = tested on: Mus musculus; experiment: Compound was evaluated for the blood-schizonticidal antimalarial activity against Plasmodium berghei (sensitive strain) in mice (Mus musculus) at 100 mg/kg/day x 4 (oral); indicates complete elimination of malaria parasites from the body, and animals survive up to day D+60 (survival=6/6)
# [7] = tested on: Mus musculus; experiment: Compound was evaluated for the blood-schizonticidal antimalarial activity against Plasmodium yoelii nigeriensis (multidrug-resistant strain) in mice (Mus musculus) at 50 mg/kg/day x 4 (oral); indicates that all of the treated animals show negative parasitaemia up to D+7(survival=4/6)
# [8] = tested on: Mus musculus; experiment: Compound was evaluated for the blood-schizonticidal antimalarial activity against Plasmodium berghei (sensitive strain) in mice (Mus musculus) at 50 mg/kg/day x 4 (oral); indicates complete elimination of malaria parasites from the body, and animals survive up to day D+60 (survival=6/6)
# [9] = tested on: Mus musculus; experiment: Compound was evaluated for the blood-schizonticidal antimalarial activity against Plasmodium berghei (sensitive strain) in mice (Mus musculus) at 25 mg/kg/day x 4 (oral); indicates complete elimination of malaria parasites from the body, and animals survive up to day D+60 (survival=6/6)
# [10] = tested on: Plasmodium falciparum; experiment: Inhibitory activity I50 against chloroquine-sensitive Plasmodium falciparum
Compound,Antimalarial activity [1],Antimalarial activity [2],IC50 [3],Antimalarial activity [4],Antimalarial activity [5],Antimalarial activity [6],Antimalarial activity [7],Antimalarial activity [8],Antimalarial activity [9],IC50 [10]
COc1cc(NC(C)CCCN)c2ncccc2c1 (configuration not stated),inactive,inactive,–,–,–,–,–,–,–,–
COc1cc(NC(C)CCCN)c2nc(C34C[C@H]5C[C@@H](C3)C[C@@H](C4)C5)ccc2c1 (some centres not stated),inactive,inactive,> 0.5 µg/mL,–,–,–,–,–,–,–
COc1cc(NC(C)CCCN)c2nc(C(C)(C)C)ccc2c1 (configuration not stated),–,–,–,Curative,Active,Curative,Active,Curative,Curative,0.0391 µg/mL
